According to US3978210A, “Antibiotic aculeacins” (Toyo Jozo Kabushiki Kaisha, priority 1974, dated 1976):

How the values were obtained:
Microsporum gypseum = experiment: Activity against fungi, giant colony growth inhibition; type: cell-based; settings: Sabroud agar, 26°C., 7 to 14 days
Description: (§1) 3. Activity against fungi:
(§2) Since aculeacins have no fungicidal activity, fungi are inoculated in Sabroud agar medium containing several concentrations of aculeacins, and incubated at 26°C. 7 to 14 days. 80% growth inhibitory concentrations of aculeacins are measured by the ratio of area of giant colony to that of control without aculeacins.

Cercospora kikuchii = experiment: as above; type: cell-based; settings: Sabroud agar, 26°C., 7 to 14 days
Description: as §1, §2

Ascochyta soyaecola = experiment: as above; type: cell-based; settings: Sabroud agar, 26°C., 7 to 14 days
Description: as §1, §2

Diaporthe phaseolorum = experiment: as above; type: cell-based; settings: Sabroud agar, 26°C., 7 to 14 days
Description: as §1, §2

Corynespora cassicola = experiment: as above; type: cell-based; settings: Sabroud agar, 26°C., 7 to 14 days
Description: as §1, §2

Glomerella cingulata = experiment: as above; type: cell-based; settings: Sabroud agar, 26°C., 7 to 14 days
Description: as §1, §2

Sclerotium bataticola = experiment: as above; type: cell-based; settings: Sabroud agar, 26°C., 7 to 14 days
Description: as §1, §2

Helminthosporium oryzae = experiment: as above; type: cell-based; settings: Sabroud agar, 26°C., 7 to 14 days
Description: as §1, §2

[1] = test system: Fusarium oxysporum f. lini; experiment: as above; type: cell-based; settings: Sabroud agar, 26°C., 7 to 14 days
Description: as §1, §2

[2] = test system: Collectotrichum linicolum; experiment: as above; type: cell-based; settings: Sabroud agar, 26°C., 7 to 14 days
Description: as §1, §2

Trichophyton asteroides = experiment: as above; type: cell-based; settings: Sabroud agar, 26°C., 7 to 14 days
Description: as §1, §2

Aspergillus fumigatus = experiment: as above; type: cell-based; settings: Sabroud agar, 26°C., 7 to 14 days
Description: as §1, §2

Trichophyton rubrum = experiment: as above; type: cell-based; settings: Sabroud agar, 26°C., 7 to 14 days
Description: as §1, §2

Candida quilliermondii = experiment: Activity against yeasts, minimum inhibitory concentration; type: cell-based; settings: Sabroud agar, 30°C., 48 hours
Description: (§3) 2. Activity against yeasts:
(§4) Assay medium: Sabroud agar, at 30°C., for 48 hours.

Cryptococcus neoiormans = experiment: as above; type: cell-based; settings: Sabroud agar, 30°C., 48 hours
Description: as §3, §4

Candida parakrusei = experiment: as above; type: cell-based; settings: Sabroud agar, 30°C., 48 hours
Description: as §3, §4

Candida krusei = experiment: as above; type: cell-based; settings: Sabroud agar, 30°C., 48 hours
Description: as §3, §4

Saccharomyces sake = experiment: as above; type: cell-based; settings: Sabroud agar, 30°C., 48 hours
Description: as §3, §4

Candida tropicalis = experiment: as above; type: cell-based; settings: Sabroud agar, 30°C., 48 hours
Description: as §3, §4

Candida pseudotropicalis = experiment: as above; type: cell-based; settings: Sabroud agar, 30°C., 48 hours
Description: as §3, §4

Mycotorula japonica = experiment: as above; type: cell-based; settings: Sabroud agar, 30°C., 48 hours
Description: as §3, §4

Torula utilis = experiment: as above; type: cell-based; settings: Sabroud agar, 30°C., 48 hours
Description: as §3, §4

Saccharomyces cerevisiae = experiment: as above; type: cell-based; settings: Sabroud agar, 30°C., 48 hours
Description: as §3, §4

mouse = experiment: Acute toxicity on mouse, LD50; type: in vivo
Excerpt: 4. Acute toxicity on mouse:
Aculeacins are almost insoluble in water, soluble in 1% sodium carboxy-methyl cellulose (CMC) solution and sodium deoxycholate (DOC). LD50 of aculeacin-A injection prepared by using those additives is as follows: […]

Candida albicans = experiment: Activity against yeasts, minimum inhibitory concentration; type: cell-based; design: unit not given here; settings: Sabroud agar, 30°C., 48 hours
Description: as §3, §4

Q: How did the “80% growth inhibitory concentration” value (Microsporum gypseum) turn out when Aculeacin-A was run?
A: 0.008 gamma/ml.

Q: What about the “80% growth inhibitory concentration” value (Cercospora kikuchii) of the same substance?
A: 4.0 gamma/ml.

Q: What about the “80% growth inhibitory concentration” value (Ascochyta soyaecola) of the same substance?
A: 0.08 gamma/ml.

Q: What about the “80% growth inhibitory concentration” value (Diaporthe phaseolorum) of the same substance?
A: 0.01 gamma/ml.

Q: And the “80% growth inhibitory concentration” value (Corynespora cassicola)?
A: 2.0 gamma/ml.

Q: What about the “80% growth inhibitory concentration” value (Glomerella cingulata) of the same substance?
A: 0.06 gamma/ml.

Q: What about the “80% growth inhibitory concentration” value (Sclerotium bataticola) of the same substance?
A: 0.08 gamma/ml.

Q: And the “80% growth inhibitory concentration” value (Helminthosporium oryzae)?
A: 0.008 gamma/ml.

Q: What about the “80% growth inhibitory concentration” value [1] of the same substance?
A: 2.0 gamma/ml.

Q: What about the “80% growth inhibitory concentration” value [2] of the same substance?
A: 0.4 gamma/ml.

Q: And the “80% growth inhibitory concentration” value (Trichophyton asteroides)?
A: 0.004 gamma/ml.

Q: What about the “80% growth inhibitory concentration” value (Aspergillus fumigatus) of the same substance?
A: 0.5 gamma/ml.

Q: What about the “80% growth inhibitory concentration” value (Trichophyton rubrum) of the same substance?
A: 0.006 gamma/ml.

Q: What about the minimum inhibitory concentration (Candida quilliermondii) of the same substance?
A: 0.8

Q: And the minimum inhibitory concentration (Cryptococcus neoiormans)?
A: > 100

Q: What about the minimum inhibitory concentration (Candida parakrusei) of the same substance?
A: 3.2

Q: And the minimum inhibitory concentration (Candida krusei)?
A: 0.8

Q: And the minimum inhibitory concentration (Saccharomyces sake)?
A: 1.6

Q: What about the minimum inhibitory concentration (Candida tropicalis) of the same substance?
A: > 100

Q: And the minimum inhibitory concentration (Candida pseudotropicalis)?
A: 0.8

Q: What about the minimum inhibitory concentration (Mycotorula japonica) of the same substance?
A: < 0.1

Q: What about the minimum inhibitory concentration (Torula utilis) of the same substance?
A: < 0.1

Q: And the minimum inhibitory concentration (Saccharomyces cerevisiae)?
A: 1.6

Q: What about the LD50 (mouse; i.m., in CMC) of the same substance?
A: > 3460 mg/kg

Q: And the LD50 (mouse; i.m., in DOC)?
A: 600 mg/kg

Q: What about the LD50 (mouse; i.p., in CMC) of the same substance?
A: 600 mg/kg

Q: What about the LD50 (mouse; i.v., in DOC) of the same substance?
A: 350 mg/kg

Q: And the LD50 (mouse; p.o., in CMC)?
A: > 3000 mg/kg

Q: And the minimum inhibitory concentration (Candida albicans; Candida albicans 1)?
A: 0.2

Q: What about the minimum inhibitory concentration (Candida albicans; Candida albicans 2) of the same substance?
A: < 0.1

Q: What about the minimum inhibitory concentration (Candida albicans; Candida albicans 3) of the same substance?
A: < 0.1

Q: And the minimum inhibitory concentration (Candida albicans; Candida albicans 4)?
A: 0.2

Q: What about the minimum inhibitory concentration (Candida albicans; Candida albicans 5) of the same substance?
A: 1.6

Q: What about the minimum inhibitory concentration (Candida albicans; Candida albicans 6) of the same substance?
A: < 0.1

Q: What about the minimum inhibitory concentration (Candida albicans; Candida albicans 7) of the same substance?
A: 3.2

Q: What about the minimum inhibitory concentration (Candida albicans; Candida albicans 8) of the same substance?
A: 0.1
